The source made the active and inactive calls.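 The calls were made as follows: active = IC50 mean at or below 20 µM; inactive = the rest.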

This test deals with 697 NF-kB-Luc cells, PMA/ionomycin, luciferase luminescence, 16 h. Description: NF-kB reporter inhibition in 697 B cells, SAR follow-up, T-cell antigen receptor NF-kB inhibitors, cell-based, luminescence, set 2 (AID 504664).

For orientation: IC50 means the midpoint of a concentration-inhibition curve. For `CCCCC(=O)NC(c1ccc(OC)cc1)c1ccc2cccnc2c1O` (stereo not given), the IC50 is > 79 µM (inactive).

On to `COc1ccc(C(NC(=O)C(C)C)c2ccc3cccnc3c2O)cc1` (stereo not given), for which the IC50 is > 79 µM (inactive).

For the compound `CC(C)c1ccc(C(NC(=O)C2CCCCC2)c2ccc3cccnc3c2O)cc1` (stereo not given), the IC50 is > 79 µM (inactive).

Regarding `CCCCC(=O)NC(c1ccc(N(C)C)cc1)c1ccc2cccnc2c1O` (stereo not given), the IC50 was > 79 µM (inactive).

As for `CC(C)(C)c1ccc(-c2noc(CCC(N)=O)n2)cc1`, the IC50 was 0.55 µM.

For `CCCCC(=O)NC(c1ccc(C)cc1)c1ccc2cccnc2c1O` (stereo not given), the IC50 was > 79 µM (inactive).

Take `CC(C)(C)NC(=O)CCc1nc(-c2ccc(C(C)(C)C)cc2)no1`: the IC50 is 2.5 µM.

For the compound `O=C(Nc1ccc2c(c1)CCO2)c1ccc([N+](=O)[O-])o1`, the IC50 was > 79 µM (inactive).

On to `CCOc1ccc(-c2nc(CS(=O)(=O)CC(=O)NCc3ccc(F)cc3)c(C)o2)cc1`, for which the IC50 was > 79 µM (inactive).

With `Cc1cc(C)cc(NC(=O)c2ccc([N+](=O)[O-])o2)c1`, the IC50 is 31.9 µM (inactive).

As to `CCCC(=O)NC(c1ccccc1Cl)c1ccc2cccnc2c1O` (stereo not given), the IC50 was > 79 µM (inactive).

`CC(=O)NC(c1ccc2ccccc2c1)c1ccc2cccnc2c1O` (stereo not given): the IC50 was > 79 µM (inactive).

Regarding `CC(=O)NC(c1ccc(C(C)C)cc1)c1ccc2cccnc2c1O` (stereo not given), the IC50 is > 79 µM (inactive).

Regarding `O=C(Nc1cccc2ncccc12)c1ccc([N+](=O)[O-])o1`, the IC50 is > 79 µM (inactive).

In the case of `CC(=O)N1CCc2cc(NC(=O)c3ccc([N+](=O)[O-])o3)ccc21`, the IC50 was > 79 µM (inactive).

`CCOc1ccc(NC(=O)c2ccc([N+](=O)[O-])o2)cc1`: the IC50 was > 79 µM (inactive).

Regarding `CCCC(=O)NC(c1ccccc1OC)c1ccc2cccnc2c1O` (stereo not given), the IC50 is > 79 µM (inactive).

Take `CCCOc1ccc(C(=O)Nc2ccc(NC(=O)c3cc4ccccc4o3)cc2)cc1`: the IC50 is > 79 µM (inactive).

With `Cc1ccc2nsnc2c1NC(=O)c1ccc([N+](=O)[O-])o1`, the IC50 was > 79 µM (inactive).

With `COc1cc(-c2nc3n(n2)C(c2ccc(F)cc2)C2=C(CCCC2=O)N3)cc(OC)c1OC` (stereo not given), the IC50 is 29 µM (inactive).

For `CCCCNC(=O)CCc1nc(-c2ccc(C(C)(C)C)cc2)no1`, the IC50 was 14.6 µM.

As to `CCOc1ccc(-c2nc(CSCC(=O)NC3CC3)c(C)o2)cc1`, the IC50 was 0.21 µM.

As for `Cc1cc(NC(=O)c2ccc([N+](=O)[O-])o2)cc(-c2nc3ccccc3o2)c1O`, the IC50 was > 79 µM (inactive).

On to `CC(C)c1ccc(C(NC(=O)C2CCCCC2)c2cc([N+](=O)[O-])c3cccnc3c2O)cc1` (stereo not given), for which the IC50 was > 79 µM (inactive).

Regarding `CCN(CC)C(=O)CCc1nc(-c2ccc(C(C)(C)C)cc2)no1`, the IC50 is 60.1 µM (inactive).

Turning to `COc1ccc(C(=O)Nc2ccc(NC(=O)c3cc4ccccc4o3)cc2)cc1OC`, the IC50 was > 79 µM (inactive).

With `CCCCC(=O)NC(c1ccc(C(C)C)cc1)c1ccc2cccnc2c1O` (stereo not given), the IC50 is > 79 µM (inactive).

Consider `COc1ccc(C(NC(=O)CCc2ccccc2)c2ccc3cccnc3c2O)cc1` (stereo not given), for which the IC50 was > 79 µM (inactive).

Take `COc1ccc(C(=O)Nc2ccc(NC(=O)c3cc4ccccc4o3)cc2)cc1[N+](=O)[O-]`: the IC50 was > 79 µM (inactive).

As for `COc1ccc(C(=O)Nc2ccc(NC(=O)c3cc4ccccc4o3)cc2)cc1Br`, the IC50 was > 79 µM (inactive).

With `CCOc1ccc(-c2nc(CSCC(=O)NCc3ccco3)c(C)o2)cc1`, the IC50 is 0.29 µM.

Take `NS(=O)(=O)c1ccc(NC(=O)c2ccc([N+](=O)[O-])o2)cc1`: the IC50 was 58.9 µM (inactive).

With `COc1ccccc1C(NC(C)=O)c1ccc2cccnc2c1O` (stereo not given), the IC50 was > 79 µM (inactive).

Turning to `COc1ccc(C(NC(=O)CC(C)C)c2ccc3cccnc3c2O)cc1OC` (stereo not given), the IC50 is > 79 µM (inactive).

For `CCN1CCN(c2c(Cl)cccc2NC(=O)c2ccc([N+](=O)[O-])o2)CC1`, the IC50 was 43.7 µM (inactive).

`CCNC(=O)CCc1nc(-c2ccc(C(C)(C)C)cc2)no1`: the IC50 is less than 0.16 µM.

Regarding `O=C(Nc1ccc2oc(-c3cccnc3)nc2c1)c1ccc([N+](=O)[O-])o1`, the IC50 is > 79 µM (inactive).

As for `CN(C)C(=O)CCc1nc(-c2ccc(C(C)(C)C)cc2)no1`, the IC50 is 6.56 µM.

As for `CNC(=O)CCc1nc(-c2ccccc2)no1`, the IC50 was > 79 µM (inactive).

With `COc1ccc(C(=O)Nc2ccc(NC(=O)c3cc4ccccc4o3)cc2)cc1Cl`, the IC50 was > 79 µM (inactive).

With `Cc1cc(NC(=O)c2ccc([N+](=O)[O-])o2)ccc1NC(=O)c1ccco1`, the IC50 was > 79 µM (inactive).

Regarding `Cc1cc(NC(=O)c2ccc3c(c2)OCCO3)ccc1NC(=O)c1cc2ccccc2o1`, the IC50 is 12.9 µM.

For `N#Cc1cccc(NC(=O)c2ccc([N+](=O)[O-])o2)c1`, the IC50 was > 79 µM (inactive).

Turning to `CCC(=O)NC(c1ccc(C)cc1)c1ccc2cccnc2c1O` (stereo not given), the IC50 was > 79 µM (inactive).

Regarding `CCCCC(=O)NC(c1ccc(N(CC)CC)cc1)c1ccc2cccnc2c1O` (stereo not given), the IC50 was > 79 µM (inactive).

Consider `CCCC(=O)NC(c1ccc(C)cc1)c1ccc2cccnc2c1O` (stereo not given), for which the IC50 was > 79 µM (inactive).

`CCCCC(=O)NC(c1ccc(Cl)cc1)c1ccc2cccnc2c1O` (stereo not given): the IC50 was > 79 µM (inactive).

As to `COc1cc(NC(=O)c2ccc3c(c2)OCO3)ccc1NC(=O)c1cc2ccccc2o1`, the IC50 is > 79 µM (inactive).

For `COc1cc2nc(NC(=O)c3ccccc3)sc(=O)c2cc1OC`, the IC50 was 0.86 µM.

As for `O=C(Nc1ccc2oc(-c3ccncc3)nc2c1)c1ccc([N+](=O)[O-])o1`, the IC50 is > 79 µM (inactive).

As for `CC(=O)N1CCN(c2ccc(NC(=O)c3ccc([N+](=O)[O-])o3)cc2Cl)CC1`, the IC50 was 62.3 µM (inactive).

For the compound `COc1ccc(C(NC(=O)Cc2ccccc2)c2ccc3cccnc3c2O)cc1OC` (stereo not given), the IC50 is > 79 µM (inactive).

Turning to `CCCC(=O)NC(c1ccc(Cl)cc1)c1ccc2cccnc2c1O` (stereo not given), the IC50 is > 79 µM (inactive).

With `COc1ccc(C)cc1NC(=O)c1ccc([N+](=O)[O-])o1`, the IC50 is > 79 µM (inactive).

As for `CC(C)CC(=O)NC(c1ccc(C(C)C)cc1)c1ccc2cccnc2c1O` (stereo not given), the IC50 was > 79 µM (inactive).

In the case of `CC(C)CC(=O)NC(c1ccccc1)c1ccc2cccnc2c1O` (stereo not given), the IC50 is > 79 µM (inactive).

`CCOc1ccc(C(=O)Nc2ccc(NC(=O)c3cc4ccccc4o3)cc2)cc1[N+](=O)[O-]`: the IC50 was > 79 µM (inactive).

As to `CCCC(=O)NC(c1ccc(C(C)C)cc1)c1ccc2cccnc2c1O` (stereo not given), the IC50 is > 79 µM (inactive).

For `Cc1ccc(NC(=O)c2ccc([N+](=O)[O-])o2)cc1C`, the IC50 was > 79 µM (inactive).

For the compound `CCC(=O)NC(c1ccc(N(C)C)cc1)c1ccc2cccnc2c1O` (stereo not given), the IC50 is > 79 µM (inactive).

For the compound `Cc1cc(-c2nc3ncccc3o2)ccc1NC(=O)c1ccc([N+](=O)[O-])o1`, the IC50 was > 79 µM (inactive).

As to `CCCCC(=O)NC(c1ccc(Cl)cc1Cl)c1ccc2cccnc2c1O` (stereo not given), the IC50 was > 79 µM (inactive).

For `CCCC(=O)NC(c1ccccc1)c1ccc2cccnc2c1O` (stereo not given), the IC50 was > 79 µM (inactive).

Consider `O=C(Nc1ccc(N2CCCC2)c(Cl)c1)c1ccc([N+](=O)[O-])o1`, for which the IC50 is 61.7 µM (inactive).

Regarding `CCCC(=O)NC(c1ccc(OC)cc1)c1ccc2cccnc2c1O` (stereo not given), the IC50 is > 79 µM (inactive).

Consider `Cc1ccc(C)c(NC(=O)c2ccc([N+](=O)[O-])o2)c1`, for which the IC50 is > 79 µM (inactive).

Take `Cc1ccc(C(NC(=O)C2CCCCC2)c2ccc3cccnc3c2O)cc1` (stereo not given): the IC50 was > 79 µM (inactive).

Consider `Cc1cccc(NC(=O)c2ccc([N+](=O)[O-])o2)c1C`, for which the IC50 is > 79 µM (inactive).

As to `CN1CCN(c2ccccc2NC(=O)c2ccc([N+](=O)[O-])o2)CC1`, the IC50 was > 79 µM (inactive).

Take `CCCCC(=O)NC(c1ccccc1)c1ccc2cccnc2c1O` (stereo not given): the IC50 is > 79 µM (inactive).

As to `Cc1ccc(C(NC(=O)C(C)C)c2ccc3cccnc3c2O)cc1` (stereo not given), the IC50 was > 79 µM (inactive).

In the case of `CNC(=O)CCc1nc(-c2ccc(C(C)(C)C)cc2)no1`, the concentration for half-maximal inhibition (IC50) was 0.03 µM.

As for `Cc1ccc(NC(=O)c2ccc([N+](=O)[O-])o2)cc1C(F)(F)F`, the IC50 is > 79 µM (inactive).

With `O=C(Nc1ccc(-c2nc3ncccc3o2)cc1)c1ccc([N+](=O)[O-])o1`, the IC50 was > 79 µM (inactive).

Consider `O=C(Nc1nc2c(Br)cc(Br)cc2c(=O)s1)c1ccco1`, for which the IC50 is 4.57 µM.

These data come from PubChem BioAssay AID504664 (Sanford-Burnham Center for Chemical Genomics, 2011).
